Patent US8637461B2, “Method of diagnosing and treating oxidative stress-impaired wound healing” (Kuwait University, priority 2011, dated 2014)

Key:
IRS-1 = IRS-1 Ser307 phosphorylation in dermal fibroblasts; assay type: cell-based, rat; conditions: diabetic, TNF-α- or dexamethasone-exposed cells; EUK-134
Protocol: (§1) Primary dermal fibroblasts were obtained from dorsal skin of female Goto Kakizaki (GK, age 12-15 months) rats, a model for non-obese type 2 diabetes, and their Wistar control counterparts. After sterilization in povidine solution, rat skin was washed in sterile water and rinsed in 70% ethanol in PBS. Epidermis and dermis were separated following overnight incubation in 0.25% trypsine/EDTA at 4 C. Dermis was cut into small pieces and incubated in Dulbecco's modified Eagle medium (DMEM; Invitrogen) containing collagenase (250 U/ml; Sigma) for thirty min at 37 C in 5% CO2 with constant agitation. The sections were triturated vigorously to release fibroblasts, which were collected by centrifugation. […]
(§2) A hypercortisolemic state was mimicked by exposing control fibroblasts to dexamethasone (Dexa, Sigma) administered at 20 ng/ml every other day for a duration of 8 days. […] The concentration of IGF-1 (50 ng/ml, Peprotech) was determined by prior dose response experiment.
Levels/activities of key intracellular molecules in the IGF-1 signaling cascade including IRS-1, IRS-1 Tyr-p-612, PI3K-p85α, IRS-1 Ser-p (307), PI3K, Akt, p-Akt, INK and p-JNK were assessed using western blotting/immunoprecipitation and commercially available ELISA-based assays. […]

Akt = Akt phosphorylation, FACE cell-based ELISA in fixed fibroblasts; design: species or system rat; conditions: diabetic, TNF-α- or dexamethasone-exposed cells, EUK-134
Protocol: as §1, §2
Activation of Akt and JNK was analyzed in fixed fibroblasts using FACE-Akt and FACE-JNK (both from Active Motife). […] Labeling with antibodies was conducted according to the manufacturer's protocol and the resulting phosphoantibody signal was calculated after correction for number of cells and total Akt or JNK levels in each sample. […]

dermal fibroblasts = test: BrdU cell proliferation assay in fibroblasts; assay type: cell-based, rat; conditions: fibroblasts with diabetic, inflammatory or hypercortisolemia phenotypes; ROS suppressors
Protocol: Primary dermal fibroblasts were obtained from dorsal skin of female Goto Kakizaki (GK, age 12-15 months) rats, a model for non-obese type 2 diabetes, and their Wistar control counterparts. After sterilization in povidine solution, rat skin was washed in sterile water and rinsed in 70% ethanol in PBS. Epidermis and dermis were separated following overnight incubation in 0.25% trypsine/EDTA at 4 C. Dermis was cut into small pieces and incubated in Dulbecco's modified Eagle medium (DMEM; Invitrogen) containing collagenase (250 U/ml; Sigma) for thirty min at 37 C in 5% CO2 with constant agitation. The sections were triturated vigorously to release fibroblasts, which were collected by centrifugation. The cell pellet was washed two times with PBS, re-suspended in complete medium (DMEM supplemented with 10% fetal calf serum, penicillin (100 U/ml), streptomycin (100 μg/ml)), 2 mM L-glutamine and 10 mM HEPES) and then cultured under a standard condition.
as §2, with “days. Similarly, the state of low-grade inflammation in fibroblasts was recapitulated experimentally by exposing these cells to TNF-α (4 ng/ml every day for 4 days).” for “days.”
The proliferation and collagen synthesis of cultured fibroblasts were determined using, respectively the 5-bromo-2-deoxyuridine (BrdU) incorporation into DNA and a radiolabelled proline uptake assay.
Cells were seeded into 96-microtiter plates at a concentration of 1.5×10^4 and allowed to adhere overnight in DMEM supplemented with 10% FCS. After arrest by incubation in DMEM supplemented with 0.5% FCS for 24 hrs, cells were exposed to IGF-I (50 ng/ml) in DMEM containing […] 5-bromo-2-deoxyuridine (BrdUrd). Incorporation of BrdUrd into DNA was estimated using 5-bromo-2-deoxyuridine labeling and detection kit (Roche Applied Science) according to the manufacturer's instructions.

[1] = Rapid insulin sensitivity test (RIST) with IGF-1 instead of insulin; assay type: in vivo, rat; conditions: diabetic/hypercortisolemic rats, chronic administration of antioxidant
Protocol: All animal procedures were performed in accordance with the NIH Guidance for the Care and Use of Laboratory Animals. The current study used, respectively the GK and Dexamethasone-treated rats as models for diabetes and hypercortisolemia. Dexamethasone was administered subcutaneously at a dose of 2.5 μg/kg body weight in the morning (8:00 AM) and in the evening (8:00 PM) for a duration of four weeks before wounding and this form of therapy continued during the course of healing. […] Weight and age-matched female Wistar rats (Kuwait University breeding colony) served as the corresponding controls. All of the animals were maintained under standard conditions with 12 hours on/off light cycle, commercial diet, and water ad libitum. GK rats destined for wounding were initially matched with regard to body weight (e.g., 230 to 250 g), and plasma levels of glucose, free fatty acids and insulin. These indices are commonly used to reflect the severity of the diabetic state.
Animals used for IGF-1 sensitivity (n=6/group) and wound healing (n=8) studies were partitioned into five study groups including control, diabetic, hypercortisolemic, diabetic+EUK and hypercortisolemic+EUK. The EUK-134 was administered for duration of four weeks before wound induction and it continued during the course of healing.
IGF-1 sensitivity in control, diabetic and hypercortisolemic animals was determined using the rapid insulin sensitivity test (RIST) with IGF-1 (200 μg/kg BW) infused instead of insulin. The RIST index is the amount of glucose per kg body weight required to maintain euglycemia following a bolus of insulin (50 mU/kg BW).

protein-bound carbonyls = test: Protein-bound carbonyl ELISA in fibroblasts; assay type: cell-based, rat; conditions: diabetic, TNF-α- or dexamethasone-exposed cells; EUK-134
Protocol: as §1, §2
Protein-bound carbonyl levels in fibroblasts, a marker of cumulative oxidative stress, were determined using a procedure in which a sensitive ELISA-based assay was used to measure total protein-bound carbonyls using oxidized bovine serum albumin (BSA) as standard. […]

With `COc1cccc(C=NCCN=Cc2cccc(OC)c2[O-])c1[O-].[Cl-].[Mn+3]` [EUK-134] the “phosphorylation of IRS-1 at Ser307” value (IRS-1) was “diminishes Ser307 phosphorylation to levels comparable to the basal level in normal fibroblasts”, the “Akt phosphorylation in response to IGF-1” value (Akt) was “partially restored” and the “impairment in key fibroblast functions (collagen synthesis, cell proliferation, migration, contraction)” value (dermal fibroblasts) was “ameliorates”. The “improvement of glucose metabolism in response to bolus injection of IGF-1” value [1] was “about 20%” and the carbonylated protein accumulation (protein-bound carbonyls) was “returned to approximately normal”.
